# Data: patent publication US8664220B2, “Polycyclic compounds as lysophosphatidic acid receptor antagonists” (Amira Pharmaceuticals, Inc., priority 2009, dated 2014)
# Molecular target: T1, human LPA1 (Homo sapiens, UniProt Q92633)
# T1 construct: the full-length cDNA for human LPA1 was obtained by PCR of the reverse transcription reaction; expressed in transfected cells
# Test: LPA1 calcium flux assay
# Type: cell-based
# Details: human LPA1 expressing CHO cells, stimulated with 10 nM LPA; read-out: HLPA1 Ca Flux IC50
# Protocol: Establishment of a CHO Cell Line Stably Expressing Human LPA1
# A 1.1 kb cDNA encoding the human LPA1 receptor was cloned from human lung.
# Human lung RNA (Clontech Laboratories, Inc. USA) was reverse transcribed using the RETROscript kit (Ambion, Inc.) and the full-length cDNA for human LPA1 was obtained by PCR of the reverse transcription reaction. The nucleotide sequence of the cloned human LPA1 was determined by sequencing and confirmed to be identical to the published human LPA1 sequence (An et al. Biochem. Biophys. Res. Commun. 231:619 (1997). The cDNA was cloned into the pcDNA5/FRT expression plasmid and transfected in CHO cells using lipofectamine 2000 (Invitrogen Corp., USA). Clones stably expressing human LPA1 were selected using hygromycin and identified as cells that show Ca-influx in response to LPA.
# LPA1 and LPA3 Calcium Flux Assays
# Human LPA1 or LPA3 expressing CHO cells are seeded at 20,000-45,000 cells per well in a 96-well poly-D-lysine coated plate one or two days before the assay. Prior to the assay, the cells are washed once with PBS and then cultured in serum-free media overnight. On the day of the assay, a calcium indicator dye (Calcium 4, Molecular Devices) in assay buffer (HBSS with Ca^2+ and Mg^2+ and containing 20 mM Hepes and 0.3% fatty-acid free human serum albumin) is added to each well and incubation continued for 1 hour at 37° C. 10 μl of test compounds in 2.5% DMSO are added to the cells and incubation continued at room temperature for 30 minutes. Cells are the stimulated by the addition of 10 nM LPA and intracellular Ca^2+ measured using the Flexstation 3 (Molecular Devices). IC50s are determined using Graphpad prism analysis of drug titration curves.
# T1 sequence (Q92633 whole entry): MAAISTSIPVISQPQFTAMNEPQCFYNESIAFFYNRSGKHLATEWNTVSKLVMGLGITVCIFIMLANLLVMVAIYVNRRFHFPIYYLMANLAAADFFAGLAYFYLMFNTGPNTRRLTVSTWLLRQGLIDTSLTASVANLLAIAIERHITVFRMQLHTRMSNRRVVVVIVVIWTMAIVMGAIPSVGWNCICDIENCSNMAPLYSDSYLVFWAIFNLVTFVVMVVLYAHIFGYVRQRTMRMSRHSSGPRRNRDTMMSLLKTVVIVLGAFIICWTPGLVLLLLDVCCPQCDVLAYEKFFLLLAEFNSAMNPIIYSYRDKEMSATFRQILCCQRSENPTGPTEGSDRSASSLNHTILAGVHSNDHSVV
row,Compound,IC50 [nM]
1,"Cc1noc(-c2ccc(-c3ccc(C4(C(=O)O)CC4)cc3)cc2)c1Nc1ccc(-c2ccccc2)cc1 [Compound 1-75, 1-{4′-[4-(Biphenyl-4-ylamino)-3-methyl-isoxazol-5-yl]-biphenyl-4-yl}-cyclopropanecarboxylic acid]",300 to 1000
2,"Cc1noc(-c2ccc(-c3ccc(C4(C(=O)O)CC4)cc3)cc2)c1C(O)c1cn(Cc2c(Cl)cccc2Cl)nn1 (centres unmarked) [Compound 1-72, 1-[4′-(4-{[1-(2,6-Dichloro-benzyl)-1H-[1,2,3]triazol-4-yl]-hydroxy-methyl}-3-methyl-isoxazol-5-yl)-biphenyl-4-yl]-cyclopropanecarboxylic acid]",300 to 1000
3,"Cc1noc(-c2ccc(-c3ccc(C4(C(=O)O)CC4)cc3)cc2)c1C(O)c1nnc(-c2ccccc2)o1 (centres unmarked) [Compound 1-38, 1-(4′-{4-[Hydroxy-(5-phenyl-[1,3,4]oxadiazol-2-yl)-methyl]-3-methyl-isoxazol-5-yl}-biphenyl-4-yl)-cyclopropanecarboxylic acid]",< 300
4,"Cc1noc(-c2ccc(-c3ccc(C4(C(=O)O)CC4)cc3)cc2)c1CN1CCC(c2ccccc2)CC1 [Compound 1-10, 1-{4′-[3-Methyl-4-(4-phenyl-piperidin-1-ylmethyl)-isoxazol-5-yl]-biphenyl-4-yl}-cyclopropanecarboxylic acid]",> 50000
5,"Cc1noc(-c2ccc(-c3ccc(C4(C(=O)NS(C)(=O)=O)CC4)cc3)cc2)c1C(O)c1nnc(Cc2ccccc2)o1 (single isomer, unassigned) [Compound 3-2, N-[1-(4′-{4-[(5-Benzyl-[1,3,4]oxadiazol-2-yl)-hydroxy-methyl]-3-methyl-isoxazol-5-yl}-biphenyl-4-yl)-cyclopropanecarbonyl]-methanesulfonamide]",< 300
6,"Cc1noc(-c2ccc(-c3ccc(C4(C(=O)O)CC4)cc3)cc2)c1C(O)c1nnc(Cc2cccc(C(F)(F)F)c2)o1 (centres unmarked) [Compound 1-46, 1-[4′-(4-{Hydroxy-[5-(3-trifluoromethyl-benzyl)-[1,3,4]oxadiazol-2-yl]-methyl}-3-methyl-isoxazol-5-yl)-biphenyl-4-yl]-cyclopropanecarboxylic acid]",300 to 1000
7,"Cc1noc(-c2ccc(-c3ccc(C4(C(=O)O)CC4)cc3)cc2)c1Nc1cccc(C#Cc2ccccc2)n1 [Compound 1-131, 1-{4′-[3-Methyl-4-(6-phenylethynyl-pyridin-2-ylamino)-isoxazol-5-yl]-biphenyl-4-yl}-cyclopropanecarboxylic acid]",< 300
8,"Cc1noc(-c2ccc(-c3ccc(C4(C(=O)O)CC4)cc3)cc2)c1CN1CCCC(c2ccccc2)C1 (centres unmarked) [Compound 1-18, 1-{4′-[3-Methyl-4-(3-phenyl-piperidin-1-ylmethyl)-isoxazol-5-yl]-biphenyl-4-yl}-cyclopropanecarboxylic acid]",< 300
9,"Cc1noc(-c2ccc(-c3ccc(C4(C(=O)O)CC4)cc3)cc2)c1C(O)c1cn(Cc2c(F)cccc2Cl)nn1 (centres unmarked) [Compound 1-71, 1-[4′-(4-{[1-(2-Chloro-6-fluoro-benzyl)-1H-[1,2,3]triazol-4-yl]-hydroxy-methyl}-3-methyl-isoxazol-5-yl)-biphenyl-4-yl]-cyclopropanecarboxylic acid]",< 300
10,"Cc1noc(-c2ccc(-c3ccc(C4(C(=O)O)CC4)cc3)cc2)c1Nc1cccc(-c2cccc(F)c2Cl)n1 [Compound 1-153, 1-(4′-{4-[6-(2-Chloro-3-fluoro-phenyl)-pyridin-2-ylamino]-3-methyl-isoxazol-5-yl}-biphenyl-4-yl)-cyclopropanecarboxylic acid]",< 300
11,"Cc1noc(-c2ccc(-c3ccc(C4(C(=O)O)CC4)cc3)cc2)c1Nc1cccc(-c2cccc(C(F)(F)F)c2Cl)n1 [Compound 1-157, 1-(4′-{4-[6-(2-Chloro-3-trifluoromethyl-phenyl)-pyridin-2-ylamino]-3-methyl-isoxazol-5-yl}-biphenyl-4-yl)-cyclopropanecarboxylic acid]",< 300
12,"Cc1noc(-c2ccc(-c3ccc(C4(C(=O)O)CC4)cc3)cc2)c1Nc1cccc(-c2cc(F)cc(Cl)c2)n1 [Compound 1-147, 1-(4′-{4-[6-(3-Chloro-5-fluoro-phenyl)-pyridin-2-ylamino]-3-methyl-isoxazol-5-yl}-biphenyl-4-yl)-cyclopropanecarboxylic acid]",< 300
13,"Cc1noc(-c2ccc(-c3ccc(C4(C(=O)O)CC4)cc3)cc2)c1Nc1cccc(Cc2ccccc2)c1 [Compound 1-90, 1-{4′-[4-(3-Benzyl-phenylamino)-3-methyl-isoxazol-5-yl]-biphenyl-4-yl}-cyclopropanecarboxylic acid]",< 300
14,"Cc1noc(-c2ccc(-c3ccc(C4(C(=O)O)CC4)cc3)cc2)c1CN1C(=O)OC[C@@H]1c1ccccc1 [Compound 1-14, 1-{4′-[3-Methyl-4-((S)-2-oxo-4-phenyl-oxazolidin-3-ylmethyl)-isoxazol-5-yl]-biphenyl-4-yl}-cyclopropanecarboxylic acid]",1000 to 50000
15,"Cc1ccccc1N1CCN(C(=O)c2c(C)noc2-c2ccc(-c3ccc(C4(C(=O)O)CC4)cc3)cc2)CC1 [Compound 1-2, 1-{4′-[3-Methyl-4-(4-o-tolyl-piperazine-1-carbonyl)-isoxazol-5-yl]-biphenyl-4-yl}-cyclopropanecarboxylic acid]",1000 to 50000

# The next lines start with the values.
row,IC50 [nM],Compound
1,< 300,"Cc1noc(-c2ccc(-c3ccc(C4(C(=O)O)CC4)cc3)cc2)c1[C@@H](O)c1cn(Cc2ccccc2Cl)nn1 [Compound 1-63, 1-[4′-(4-{(R)-[1-(2-Chloro-benzyl)-1H-[1,2,3]triazol-4-yl]-hydroxy-methyl}-3-methyl-isoxazol-5-yl)-biphenyl-4-yl]-cyclopropanecarboxylic acid]"
2,< 300,"Cc1noc(-c2ccc(-c3ccc(C4(C(=O)O)CC4)cc3)cc2)c1NC(C)[C@@H]1C[C@H]1c1ccccc1 (relative stereo) [Compound 1-66, 1-(4′-{3-Methyl-4-[trans-1-(2-phenyl-cyclopropyl)-ethylamino]-isoxazol-5-yl}-biphenyl-4-yl)-cyclopropanecarboxylic acid]"
3,< 300,"Cc1noc(-c2ccc(-c3ccc(C4(C(=O)O)CC4)cc3)cc2)c1C(O)c1cn(Cc2ccccc2Cl)nn1 (centres unmarked) [Compound 1-61, 1-[4′-(4-{[1-(2-Chloro-benzyl)-1H-[1,2,3]triazol-4-yl]-hydroxy-methyl}-3-methyl-isoxazol-5-yl)-biphenyl-4-yl]-cyclopropanecarboxylic acid]"
4,< 300,"Cc1noc(-c2ccc(-c3ccc(C4(C(=O)O)CC4)cc3)cc2)c1Cn1cc(-c2ccccc2)nn1 [Compound 1-6, 1-{4′-[3-Methyl-4-(4-phenyl-[1,2,3]triazol-1-ylmethyl)-isoxazol-5-yl]-biphenyl-4-yl}-cyclopropanecarboxylic acid]"
5,< 300,"Cc1noc(-c2ccc(-c3ccc(C4(C(=O)NS(C)(=O)=O)CC4)cc3)cc2)c1Nc1cccc(-c2ccccc2)n1 [Compound 3-6, N-(1-{4′-[3-Methyl-4-(6-phenyl-pyridin-2-ylamino)-isoxazol-5-yl]-biphenyl-4-yl}-cyclopropanecarbonyl)-methanesulfonamide]"
6,< 300,"Cc1noc(-c2ccc(-c3ccc(C4(C(=O)O)CC4)cc3)cc2)c1CN1CC(c2ccccc2)OC1=O (centres unmarked) [Compound 1-22, 1-{4′-[3-Methyl-4-(2-oxo-5-phenyl-oxazolidin-3-ylmethyl)-isoxazol-5-yl]-biphenyl-4-yl}-cyclopropanecarboxylic acid]"
7,< 300,"Cc1noc(-c2ccc(-c3ccc(C4(C(=O)O)CC4)cc3)cc2)c1Nc1cccc(-c2ccncc2)n1 [Compound 1-99, 1-{4′-[4-([2,4′]Bipyridinyl-6-ylamino)-3-methyl-isoxazol-5-yl]-biphenyl-4-yl}-cyclopropanecarboxylic acid]"
8,< 300,"Cc1noc(-c2ccc(-c3ccc(C4(C(=O)O)CC4)cc3)cc2)c1Nc1cccc(-c2cccc(F)c2)n1 [Compound 1-93, 1-(4′-{4-[6-(3-Fluoro-phenyl)-pyridin-2-ylamino]-3-methyl-isoxazol-5-yl}-biphenyl-4-yl)-cyclopropanecarboxylic acid]"
9,< 300,"Cc1noc(-c2ccc(-c3ccc(C4(C(=O)O)CC4)cc3)cc2)c1Nc1cncc(-c2cccc(F)c2)c1 [Compound 1-108, 1-(4′-{4-[5-(3-Fluoro-phenyl)-pyridin-3-ylamino]-3-methyl-isoxazol-5-yl}-biphenyl-4-yl)-cyclopropanecarboxylic acid]"
10,< 300,"Cc1noc(-c2ccc(-c3ccc(C4(C(=O)O)CC4)cc3)cc2)c1CNc1nnc(-c2ccccc2)o1 [Compound 1-19, 1-(4′-{3-Methyl-4-[(5-phenyl-[1,3,4]oxadiazol-2-ylamino)-methyl]-isoxazol-5-yl}-biphenyl-4-yl)-cyclopropanecarboxylic acid]"
11,< 300,"Cc1noc(-c2ccc(-c3ccc(C4(C(=O)O)CC4)cc3)cc2)c1C(O)c1cncc(-c2ccccc2)c1 (centres unmarked) [Compound 1-129, 1-(4′-{4-[Hydroxy-(5-phenyl-pyridin-3-yl)-methyl]-3-methyl-isoxazol-5-yl}-biphenyl-4-yl)-cyclopropanecarboxylic acid]"
